# Patent EP3466279B1, “PRODUCTION METHOD OF COMPOSITION USING INSECT AS A RAW MATERIAL” (National University Corporation Ehime University, priority 2016, dated 2017)
# Columns and labels:
# [1] = tested on: mouse macrophage cell line (RAW264 cells); test: Immunosuppressive action: inhibition of LPS-induced nitrogen monoxide production; format: cell-based; conditions: LPS 100 ng/mL; 1,2-benzenediol 0 µg/mL to 10 µg/mL; FIG. 4
# Protocol: A substance contained in Antheraea yamamai pupae and Bombyx mori pupae and having an immunosuppressive action on humans or animals having ate the insects was identified. Distilled water was added to a dry powder of Antheraea yamamai pupae and a dried powder of Bombyx mori pupae and the mixture was stirred and centrifugally separated to obtain the supernatant. Ethyl acetate was added to the resultant supernatant to cause liquid-liquid partition, and the resultant ethyl acetate layer was evaporated to dryness by distilling off the solvent with a rotary evaporator. Distilled water was added to the residue, which was added to a C18 solid phase column, and the flow-through fraction was recovered. The resultant flow-through fraction was eluted with high performance liquid chromatography (Develosil C30 column), and the immunosuppressive action of each eluted fraction obtained was measured. […]
# Whether 1,2-benzenediol identified from Antheraea yamamai pupae and Bombyx mori pupae has an immunosuppressive action or not was evaluated by the production of nitrogen monoxide from a mouse macrophage cell line (RAW264 cells) as an indicator.
# [2] = tested on: mouse macrophage cell line (RAW264 cells); format: cell-based
smiles,measurement,setting,value
"Oc1ccccc1O [1,2-benzenediol]",inhibition of nitrogen monoxide production,[1],inhibition of nitrogen monoxide production was observed depending on the concentration
same,growth inhibition of a mouse macrophage cell line (concentration at which confirmed),[2],≥ 1 µg/mL
